Reference: ChEMBL document CHEMBL5325403, “Benzenesulfonyl thiazoloimines as unique multitargeting antibacterial agents towards Enterococcus faecalis” (Eur J Med Chem, 2023)
Converted amounts (≈) assume the structure as drawn.

Each compound was assayed on Staphylococcus aureus (assay: Antibacterial activity against methicillin-resistant Staphylococcus aureus N315 assessed as inhibition of bacterial growth by continuous dilution method).
Format: functional
CC(=O)Nc1ccc(S(=O)(=O)/C(=C\c2ccc(C(F)(F)F)cc2)C(=O)c2nccs2)cc1 was tested, and the MIC was 256 µg/mL (≈ 533 µM). With CCCCCCO/N=C(/CS(=O)(=O)c1ccc(N)cc1)c1nccs1 the MIC was 128 µg/mL (≈ 335 µM). In the case of CC(=O)Nc1ccc(S(=O)(=O)C/C(=N/NC(=O)c2ccncc2)c2nccs2)cc1, the MIC is reported as 32 µg/mL (≈ 72.2 µM). Compound CCCCCCCCO/N=C(/CS(=O)(=O)c1ccc(N)cc1)c1nccs1 has an MIC of 64 µg/mL (≈ 156 µM).

These compounds were tested on Pseudomonas aeruginosa (assay: Antibacterial activity against Pseudomonas aeruginosa assessed as inhibition of bacterial growth by continuous dilution method).
Format: functional
CC(=O)Nc1ccc(S(=O)(=O)/C(=C\c2ccc(C(F)(F)F)cc2)C(=O)c2nccs2)cc1 showed an MIC of 64 µg/mL (≈ 133 µM). Work on CCCCCCO/N=C(/CS(=O)(=O)c1ccc(N)cc1)c1nccs1 yielded an MIC of 16 µg/mL (≈ 41.9 µM). For CC(=O)Nc1ccc(S(=O)(=O)C/C(=N/NC(=O)c2ccncc2)c2nccs2)cc1, the MIC was 8 µg/mL (≈ 18 µM). With CCCCCCCCO/N=C(/CS(=O)(=O)c1ccc(N)cc1)c1nccs1 the MIC was 64 µg/mL (≈ 156 µM).

Each compound was assayed on Escherichia coli (assay: Antibacterial activity against Escherichia coli assessed as inhibition of bacterial growth by continuous dilution method).
Format: functional
CC(=O)Nc1ccc(S(=O)(=O)/C(=C\c2ccc(C(F)(F)F)cc2)C(=O)c2nccs2)cc1 gave an MIC of 256 µg/mL (≈ 533 µM). Work on CCCCCCO/N=C(/CS(=O)(=O)c1ccc(N)cc1)c1nccs1 yielded an MIC of 16 µg/mL (≈ 41.9 µM). With CC(=O)Nc1ccc(S(=O)(=O)C/C(=N/NC(=O)c2ccncc2)c2nccs2)cc1 the MIC was 128 µg/mL (≈ 289 µM). Compound CCCCCCCCO/N=C(/CS(=O)(=O)c1ccc(N)cc1)c1nccs1 has an MIC of 32 µg/mL (≈ 78.1 µM).

What follows are compounds tested on Staphylococcus aureus (assay: Antibacterial activity against Staphylococcus aureus ATCC 25923 assessed as inhibition of bacterial growth by continuous dilution method).
Format: functional
CC(=O)Nc1ccc(S(=O)(=O)/C(=C\c2ccc(C(F)(F)F)cc2)C(=O)c2nccs2)cc1 showed an MIC of 128 µg/mL (≈ 266 µM). CCCCCCO/N=C(/CS(=O)(=O)c1ccc(N)cc1)c1nccs1 was tested, and the MIC was 64 µg/mL (≈ 168 µM). CC(=O)Nc1ccc(S(=O)(=O)C/C(=N/NC(=O)c2ccncc2)c2nccs2)cc1 gave an MIC of 8 µg/mL (≈ 18 µM). With CCCCCCCCO/N=C(/CS(=O)(=O)c1ccc(N)cc1)c1nccs1 the MIC was 32 µg/mL (≈ 78.1 µM).

What follows are compounds tested on Acinetobacter baumannii (assay: Antibacterial activity against Acinetobacter baumannii assessed as inhibition of bacterial growth by continuous dilution method).
Format: functional
With CC(=O)Nc1ccc(S(=O)(=O)/C(=C\c2ccc(C(F)(F)F)cc2)C(=O)c2nccs2)cc1 the MIC was 128 µg/mL (≈ 266 µM). CCCCCCO/N=C(/CS(=O)(=O)c1ccc(N)cc1)c1nccs1 gave an MIC of 64 µg/mL (≈ 168 µM). For CC(=O)Nc1ccc(S(=O)(=O)C/C(=N/NC(=O)c2ccncc2)c2nccs2)cc1, the MIC was 32 µg/mL (≈ 72.2 µM). In the case of CCCCCCCCO/N=C(/CS(=O)(=O)c1ccc(N)cc1)c1nccs1, the MIC is reported as 64 µg/mL (≈ 156 µM).

The compounds below were run on Klebsiella pneumoniae (assay: Antibacterial activity against Klebsiella pneumoniae assessed as inhibition of bacterial growth by continuous dilution method).
Format: functional
CC(=O)Nc1ccc(S(=O)(=O)/C(=C\c2ccc(C(F)(F)F)cc2)C(=O)c2nccs2)cc1 gave an MIC of 256 µg/mL (≈ 533 µM). In the case of CCCCCCO/N=C(/CS(=O)(=O)c1ccc(N)cc1)c1nccs1, the MIC is reported as 32 µg/mL (≈ 83.9 µM). CC(=O)Nc1ccc(S(=O)(=O)C/C(=N/NC(=O)c2ccncc2)c2nccs2)cc1 was tested, and the MIC was 32 µg/mL (≈ 72.2 µM). CCCCCCCCO/N=C(/CS(=O)(=O)c1ccc(N)cc1)c1nccs1 showed an MIC of 32 µg/mL (≈ 78.1 µM).

Each compound was assayed on Escherichia coli (assay: Antibacterial activity against Escherichia coli ATCC 25922 assessed as inhibition of bacterial growth by continuous dilution method).
Format: functional
CC(=O)Nc1ccc(S(=O)(=O)/C(=C\c2ccc(C(F)(F)F)cc2)C(=O)c2nccs2)cc1 showed an MIC of 256 µg/mL (≈ 533 µM). CCCCCCO/N=C(/CS(=O)(=O)c1ccc(N)cc1)c1nccs1 showed an MIC of 16 µg/mL (≈ 41.9 µM). In the case of CC(=O)Nc1ccc(S(=O)(=O)C/C(=N/NC(=O)c2ccncc2)c2nccs2)cc1, the MIC is reported as 128 µg/mL (≈ 289 µM). CCCCCCCCO/N=C(/CS(=O)(=O)c1ccc(N)cc1)c1nccs1 was tested, and the MIC was 32 µg/mL (≈ 78.1 µM).

These compounds were tested on Staphylococcus aureus (assay: Antibacterial activity against Staphylococcus aureus assessed as inhibition of bacterial growth by continuous dilution method).
Format: functional
CC(=O)Nc1ccc(S(=O)(=O)/C(=C\c2ccc(C(F)(F)F)cc2)C(=O)c2nccs2)cc1 gave an MIC of 256 µg/mL (≈ 533 µM). CCCCCCO/N=C(/CS(=O)(=O)c1ccc(N)cc1)c1nccs1 showed an MIC of 32 µg/mL (≈ 83.9 µM). For CC(=O)Nc1ccc(S(=O)(=O)C/C(=N/NC(=O)c2ccncc2)c2nccs2)cc1, the MIC was 16 µg/mL (≈ 36.1 µM). Compound CCCCCCCCO/N=C(/CS(=O)(=O)c1ccc(N)cc1)c1nccs1 has an MIC of 128 µg/mL (≈ 313 µM).

The compounds below were run on Enterococcus faecalis (assay: Antibacterial activity against Enterococcus faecalis assessed as inhibition of bacterial growth by continuous dilution method).
Format: functional
CC(=O)Nc1ccc(S(=O)(=O)/C(=C\c2ccc(C(F)(F)F)cc2)C(=O)c2nccs2)cc1 showed an MIC of 128 µg/mL (≈ 266 µM). For CCCCCCO/N=C(/CS(=O)(=O)c1ccc(N)cc1)c1nccs1, the MIC was 8 µg/mL (≈ 21 µM). With CC(=O)Nc1ccc(S(=O)(=O)C/C(=N/NC(=O)c2ccncc2)c2nccs2)cc1 the MIC was 4 µg/mL (≈ 9.02 µM). For CCCCCCCCO/N=C(/CS(=O)(=O)c1ccc(N)cc1)c1nccs1, the MIC was 32 µg/mL (≈ 78.1 µM).

What follows are compounds tested on Pseudomonas aeruginosa (assay: Antibacterial activity against Pseudomonas aeruginosa ATCC 27853 assessed as inhibition of bacterial growth by continuous dilution method).
Format: functional
CC(=O)Nc1ccc(S(=O)(=O)/C(=C\c2ccc(C(F)(F)F)cc2)C(=O)c2nccs2)cc1 showed an MIC of 64 µg/mL (≈ 133 µM). With CCCCCCO/N=C(/CS(=O)(=O)c1ccc(N)cc1)c1nccs1 the MIC was 16 µg/mL (≈ 41.9 µM). Work on CC(=O)Nc1ccc(S(=O)(=O)C/C(=N/NC(=O)c2ccncc2)c2nccs2)cc1 yielded an MIC of 4 µg/mL (≈ 9.02 µM). In the case of CCCCCCCCO/N=C(/CS(=O)(=O)c1ccc(N)cc1)c1nccs1, the MIC is reported as 16 µg/mL (≈ 39.1 µM).

Each compound was assayed on Staphylococcus aureus (assay: Antibacterial activity against Staphylococcus aureus ATCC 29213 assessed as inhibition of bacterial growth by continuous dilution method).
Format: functional
Work on CC(=O)Nc1ccc(S(=O)(=O)/C(=C\c2ccc(C(F)(F)F)cc2)C(=O)c2nccs2)cc1 yielded an MIC of 128 µg/mL (≈ 266 µM). CCCCCCO/N=C(/CS(=O)(=O)c1ccc(N)cc1)c1nccs1 gave an MIC of 64 µg/mL (≈ 168 µM). CC(=O)Nc1ccc(S(=O)(=O)C/C(=N/NC(=O)c2ccncc2)c2nccs2)cc1 gave an MIC of 4 µg/mL (≈ 9.02 µM). Work on CCCCCCCCO/N=C(/CS(=O)(=O)c1ccc(N)cc1)c1nccs1 yielded an MIC of 64 µg/mL (≈ 156 µM).
